Test results taken from publication PMC10145249, “Synthesis and Evaluation of ^68Ga-Labeled (2S,4S)-4-Fluoropyrrolidine-2-Carbonitrile and (4R)-Thiazolidine-4-Carbonitrile Derivatives as Novel Fibroblast Activation Protein-Targeted PET Tracers for Cancer Imaging” (Molecules, 2023).
Read-outs that look alike come from different tables or passages of the source. Values belong to the compound of their own block, whether it stands above or below them.

Assays:
FAP [1] = tested on: FAP; design: method as in PMID 24617858; conditions: cited from earlier work; for IC50: (4-quinolinoyl)-glycyl-2-cyanopyrrolidine series, read-out: IC50 (FAP-inhibitory potency)
[2] = tested on: HEK293T:hFAP tumor-bearing mice; experiment: Ex vivo biodistribution in HEK293T:hFAP tumor xenograft mouse model
Method: (§1) Imaging and biodistribution studies were performed using immunodeficient male NRG (NOD.Cg-Rag1tm1Mom Il2rgtm1Wjl/SzJ) mice. All experiments were conducted according to the guidelines established by the Canadian Council on Animal Care and approved by Animal Ethics Committee of the University of British Columbia. The mice were subcutaneously inoculated with 7.5 × 10^6 HEK293T:hFAP cells in the left dorsal flank. When the tumors grew to 6–8 mm in diameter, the mice were used for PET/CT imaging and biodistribution studies.
For biodistribution studies, the mice were injected with ~1–2 MBq (0.01–0.04 nmol) of the ^68Ga-labeled tracer, using the exact procedures described above. At 1 h post injection, the mice were euthanized by CO2 inhalation. Blood was withdrawn by cardiac puncture and organs/tissues of interest were collected, weighed, and counted using a Perkin Elmer (Waltham, MA, USA) Wizard2 2480 automatic gamma counter. The percent injected dose per gram of tissues (%ID/g) for different tracers was calculated.
(§2) For blocking studies, HEK293T:hFAP tumor-bearing mice were co-injected with [^68Ga]Ga-SB03045 and excess nonradioactive Ga-FAPI-04 (0.5 mg/mouse) as a competitor. Imaging and biodistribution were performed at 1 h pi, similar to the process for the unblocked mice.

[3] = design: method as in PMID 30072500; conditions: patients, preliminary dosimetry study; cited from earlier work
[4] = LogD7.4 measurement (n-octanol / phosphate buffer pH 7.4); assay type: physicochemical; conditions: n-octanol / 0.1 M phosphate buffer pH 7.4, n = 3
Method: Briefly, ^68Ga-labeled tracers (1.11–1.48 MBq) were aliquoted into vials containing 3 mL of n-octanol and 3 mL of 0.1 M phosphate buffer (pH 7.4) in triplicate. Each vial was then vortexed (1 min) and centrifuged (5000 RPM, 10 min). The n-octanol and aqueous layers were sampled (1 mL) and counted using an automated gamma counter and the LogD7.4 value was calculated using the following equation: LogD7.4=log10counts in n-octanol phase/counts in buffer phase

[5] = tested on: HEK293T:hFAP tumor xenografts; experiment: PET/CT imaging in HEK293T:hFAP tumor-bearing mice; assay type: in vivo; conditions: for Visualization of tumor xenografts in PET/CT images / Excretion pathway: 1 h pi; for Excretion pathway: PET/CT
Method: as §1
PET/CT imaging experiments were carried out using a Siemens Inveon micro PET/CT scanner (Knoxville, TN, USA). Tumor-bearing mice were injected with ~4 to 6 MBq (0.02–0.13 nmol) of ^68Ga-labeled tracer through a lateral caudal tail vein under 2.5% isoflurane in oxygen anesthesia, followed by recovery and free roaming in their cage during the uptake period. A 10 min localization CT scan was acquired using 3 overlapping positions to cover each entire mouse. A CT scan was used for attenuation and scatter correction, and anatomical localization. A list mode acquisition was then performed for 15 min at 1 h pi with each mouse under isoflurane sedation. The images were reconstructed using 3D OSEM/MAP iterative methods.
as §2

recombinant human FAP = biological target: T1, recombinant human FAP (Homo sapiens, UniProt Q12884); experiment: In vitro fluorescence-based FAP enzymatic inhibition assay (Suc-Gly-Pro-AMC substrate); assay type: biochemical; conditions: for IC50: recombinant human FAP, Suc-Gly-Pro-AMC, n = 3
T1 construct: purchased Biolegend
T1 sequence (Q12884 1-760): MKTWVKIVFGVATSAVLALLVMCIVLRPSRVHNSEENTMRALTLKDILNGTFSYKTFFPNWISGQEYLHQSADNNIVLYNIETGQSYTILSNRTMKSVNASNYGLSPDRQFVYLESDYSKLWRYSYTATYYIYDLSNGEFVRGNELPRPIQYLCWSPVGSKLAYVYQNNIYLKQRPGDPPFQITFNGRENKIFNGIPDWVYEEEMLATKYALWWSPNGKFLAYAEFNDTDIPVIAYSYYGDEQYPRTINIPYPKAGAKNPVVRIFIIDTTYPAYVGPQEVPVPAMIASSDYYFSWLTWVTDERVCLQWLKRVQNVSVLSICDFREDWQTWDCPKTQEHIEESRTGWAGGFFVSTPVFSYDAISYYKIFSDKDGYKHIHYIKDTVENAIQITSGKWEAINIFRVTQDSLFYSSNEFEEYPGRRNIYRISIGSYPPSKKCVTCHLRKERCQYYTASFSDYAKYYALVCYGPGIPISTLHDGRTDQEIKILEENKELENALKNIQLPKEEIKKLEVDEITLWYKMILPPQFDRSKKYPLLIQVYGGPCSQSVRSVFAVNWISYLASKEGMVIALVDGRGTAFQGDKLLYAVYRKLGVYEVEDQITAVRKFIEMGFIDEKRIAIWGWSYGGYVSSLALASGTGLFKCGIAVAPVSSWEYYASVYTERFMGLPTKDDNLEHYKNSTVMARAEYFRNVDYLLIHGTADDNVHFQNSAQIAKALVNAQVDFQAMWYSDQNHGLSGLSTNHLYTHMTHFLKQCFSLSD
Method: The half-maximal inhibitory concentration (IC50) values of the FAP-targeted ligands were measured using an in vitro enzymatic assay. Briefly, recombinant human FAP (Biolegend, San Diego, CA, USA; 0.2 µg/mL, 50 µL) was added into a Costar clear bottom 96-well plate. PBS and varied concentrations (25 pM to 1 µM) of ^natGa-complexed ligands were added to each well (in duplicate) containing the recombinant human FAP. After being incubated for 30 min at 37 °C, Suc-Gly-Pro-AMC (Bachem, Bubendorf, Switzerland; 20 mM, 50 µL) was added to each well. The velocities of AMC release were measured kinetically at λex = 380 nm, λem = 460 nm at 60 min at 37 °C using a FlexStation 3 Multi-Mode Microplate Reader.

FAP [6] = tested on: FAP; design: method as in PMID 20718420; conditions: substituted 4-carboxymethylpyroglutamic acid scaffold; read-out: IC50 (FAP-inhibitory activity); cited from earlier work
[7] = HEK293T:hFAP tumor-bearing mice, 1 h pi, unblocked
[8] = 0.5 mg/mouse natGa-FAPI-04, 1 h pi
[9] = HEK293T:hFAP tumor-bearing mice, 1 h pi, blocked: co-injected with natGa-FAPI-04 (0.5 mg/mouse)

SMILES: N#CC1CC(F)CN1C(=O)CNC(=O)c1ccnc2ccccc12 [(4S)-fluoropyrrolidine]
IC50 (FAP [1]): 3.3 nM

Adrenal Glands uptake [2, 7]: 1.31 ± 0.60 %ID/g
Blood uptake [2, 7]: 1.20 ± 0.30 %ID/g
Bone uptake [2, 7]: 3.79 ± 1.36 %ID/g
Brain uptake [2, 7]: 0.05 ± 0.01 %ID/g
Fat uptake [2, 7]: 0.14 ± 0.06 %ID/g
Heart uptake [2, 7]: 0.37 ± 0.08 %ID/g
Kidneys uptake [2, 7]: 1.88 ± 0.18 %ID/g
Liver uptake [2, 7]: 0.40 ± 0.07 %ID/g
Lungs uptake [2, 7]: 0.80 ± 0.16 %ID/g
Muscle uptake [2, 7]: 0.76 ± 0.20 %ID/g
Pancreas uptake [2, 7]: 0.44 ± 0.16 %ID/g
Small Intestines uptake [2, 7]: 0.37 ± 0.07 %ID/g
Spleen uptake [2, 7]: 0.60 ± 0.14 %ID/g
Stomach uptake [2, 7]: 0.16 ± 0.19 %ID/g
Testes uptake [2, 7]: 0.28 ± 0.04 %ID/g
Tumor/Blood uptake ratio [2, 7]: 10.5 ± 3.25
Tumor/Bone uptake ratio [2, 7]: 3.49 ± 1.41
Tumor/Kidney uptake ratio [2, 7]: 6.41 ± 1.52
Tumor/Muscle uptake ratio [2, 7]: 16.8 ± 5.73
LogD7.4 [4]: −1.92 ± 0.35
SMILES: N#C[C@@H]1CC(F)(F)CN1C(=O)CNC(=O)c1ccnc2ccc(OCCCN3CCN(C(=O)CN4CCN5CCN(CC(=O)O)CCN(CC4)CC(=O)[O][68Ga+][O]C(=O)C5)CC3)cc12 [[^68Ga]Ga-FAPI-04, reference compound]
Drop of tumor uptake from 1 to 3 h post-injection [3]: 25%

Excretion pathway [5]: excreted mainly via the renal pathway
Adrenal Glands uptake [2, 9]: 0.14 ± 0.08 %ID/g
Blood uptake [2, 9]: 0.19 ± 0.12 %ID/g
Bone uptake [2, 9]: 0.09 ± 0.05 %ID/g
Brain uptake [2, 9]: 0.01 ± 0.01 %ID/g
Fat uptake [2, 9]: 0.04 ± 0.02 %ID/g
Heart uptake [2, 9]: 0.05 ± 0.03 %ID/g
Kidneys uptake [2, 9]: 1.03 ± 0.43 %ID/g
Liver uptake [2, 9]: 0.13 ± 0.04 %ID/g
Lungs uptake [2, 9]: 0.15 ± 0.09 %ID/g
Muscle uptake [2, 9]: 0.05 ± 0.03 %ID/g
Pancreas uptake [2, 9]: 0.04 ± 0.03 %ID/g
Small Intestines uptake [2, 9]: 0.12 ± 0.06 %ID/g
Spleen uptake [2, 9]: 0.10 ± 0.05 %ID/g
Stomach uptake [2, 9]: 0.07 ± 0.06 %ID/g
Testes uptake [2, 9]: 0.06 ± 0.03 %ID/g
Tumor uptake [2, 9]: 0.51 %ID/g
Tumor/Blood uptake ratio [2, 9]: 3.06 ± 1.01
Tumor/Bone uptake ratio [2, 9]: 6.67 ± 2.72
Tumor/Kidney uptake ratio [2, 9]: 0.50 ± 0.01
Tumor/Muscle uptake ratio [2, 9]: 12.4 ± 5.48
Adrenal Glands uptake [2, 7]: 0.49 ± 0.47 %ID/g
Blood uptake [2, 7]: 1.31 ± 0.43 %ID/g
Bone uptake [2, 7]: 3.48 ± 1.02 %ID/g
Brain uptake [2, 7]: 0.05 ± 0.01 %ID/g
Fat uptake [2, 7]: 0.14 ± 0.08 %ID/g
Heart uptake [2, 7]: 0.41 ± 0.15 %ID/g
Kidneys uptake [2, 7]: 2.23 ± 0.41 %ID/g
Liver uptake [2, 7]: 0.47 ± 0.10 %ID/g
Lungs uptake [2, 7]: 0.69 ± 0.20 %ID/g
Muscle uptake [2, 7]: 0.83 ± 0.42 %ID/g
Pancreas uptake [2, 7]: 0.52 ± 0.22 %ID/g
Small Intestines uptake [2, 7]: 0.40 ± 0.10 %ID/g
Spleen uptake [2, 7]: 0.49 ± 0.19 %ID/g
Stomach uptake [2, 7]: 0.31 ± 0.04 %ID/g
Testes uptake [2, 7]: 0.26 ± 0.08 %ID/g
Tumor uptake [2, 7]: 11.8 ± 2.35 %ID/g
Tumor/Blood uptake ratio [2, 7]: 9.89 ± 3.80
Tumor/Bone uptake ratio [2, 7]: 3.58 ± 1.07
Tumor/Kidney uptake ratio [2, 7]: 5.41 ± 1.32
Tumor/Muscle uptake ratio [2, 7]: 17.2 ± 8.68
LogD7.4 [4]: −2.81 ± 0.05
SMILES: N#C[C@@H]1C[C@H](F)CN1C(=O)CNC(=O)c1ccnc2ccc(OCCCN3CCN(C(=O)CN4CCN5CCN(CC(=O)O)CCN(CC4)CC(=O)[O][68Ga+][O]C(=O)C5)CC3)cc12 [[^68Ga]Ga-SB03045]
Visualization of tumor xenografts in PET/CT images [5]: clearly visualized
Tumor uptake in PET/CT on co-injection with natGa-FAPI-04 ([5]; blocked, 0.5 mg/mouse natGa-FAPI-04, 1 h pi): reduced the tumor uptake to almost background level
Reduction in bone uptake by co-injection of excess natGa-FAPI-04 [2, 8]: ~ 97%
Reduction of average tumor uptake by co-injection of natGa-FAPI-04 [2, 8]: ~ 96%

Excretion pathway [5]: excreted mainly via the renal pathway
Fold lower tumor uptake than [68Ga]Ga-FAPI-04 ([2]; HEK293T:hFAP tumor-bearing mice, 1 h pi): ~ 1.5 fold
Adrenal Glands uptake [2, 7]: 2.50 ± 1.58 %ID/g
Blood uptake [2, 7]: 2.07 ± 0.21 %ID/g
Bone uptake [2, 7]: 4.73 ± 0.52 %ID/g
Brain uptake [2, 7]: 0.11 ± 0.08 %ID/g
Fat uptake [2, 7]: 0.40 ± 0.23 %ID/g
Heart uptake [2, 7]: 0.59 ± 0.09 %ID/g
Kidneys uptake [2, 7]: 2.64 ± 0.28 %ID/g
Liver uptake [2, 7]: 0.62 ± 0.19 %ID/g
Lungs uptake [2, 7]: 1.25 ± 0.11 %ID/g
Muscle uptake [2, 7]: 1.42 ± 0.31 %ID/g
Pancreas uptake [2, 7]: 0.86 ± 0.16 %ID/g
Small Intestines uptake [2, 7]: 0.61 ± 0.05 %ID/g
Spleen uptake [2, 7]: 1.48 ± 1.01 %ID/g
Stomach uptake [2, 7]: 0.26 ± 0.07 %ID/g
Testes uptake [2, 7]: 0.48 ± 0.10 %ID/g
Tumor uptake [2, 7]: 7.93 ± 1.33 %ID/g
Tumor/Blood uptake ratio [2, 7]: 3.82 ± 0.25
Tumor/Bone uptake ratio [2, 7]: 1.67 ± 0.13
Tumor/Kidney uptake ratio [2, 7]: 3.01 ± 0.32
Tumor/Muscle uptake ratio [2, 7]: 5.64 ± 0.62
LogD7.4 [4]: −2.49 ± 0.28
SMILES: N#C[C@@H]1CSCN1C(=O)CNC(=O)c1ccnc2ccc(OCCCN3CCN(C(=O)CN4CCN5CCN(CC(=O)O)CCN(CC4)CC(=O)[O][68Ga+][O]C(=O)C5)CC3)cc12 [[^68Ga]Ga-SB03058]
Visualization of tumor xenografts in PET/CT images [5]: clearly visualized

IC50 (recombinant human FAP): 1.59 ± 0.45 nM
SMILES: N#C[C@@H]1C[C@H](F)CN1C(=O)CNC(=O)c1ccnc2ccc(OCCCN3CCN(C(=O)CN4CCN5CCN(CC(=O)O)CCN(CC4)CC(=O)[O][Ga+][O]C(=O)C5)CC3)cc12 [^natGa-SB03045]

FAP-binding potency, fold higher than the di-fluorinated analog (natGa-FAPI-04) (recombinant human FAP): > 5 fold
IC50 (recombinant human FAP): 0.68 ± 0.09 nM
SMILES: N#C[C@@H]1CSCN1C(=O)CNC(=O)c1ccnc2ccc(OCCCN3CCN(C(=O)CN4CCN5CCN(CC(=O)O)CCN(CC4)CC(=O)[O][Ga+][O]C(=O)C5)CC3)cc12 [^natGa-SB03058]
